The text below walks through data of patent publication US20240352066A1, “ANTIMICROBIAL COMPOUNDS AND THE METHOD OF USE” (priority 2021, published 2024).

The test system of data set [1] is C. albicans. Format: cell-based, Candida albicans. As to conditions: 24 h. Here is the method: 2-fold serial dilutions of 100× peptoid solutions were prepared in water and 2 μL of peptoid were added to each well in triplicate. […] MIC was defined as the lowest concentration of compound preventing fungal growth. This assay was repeated 3 times on separate days with each compound.

Data set [2] can be described thus: in vitro. Format: cell-based, mouse. As to conditions: mouse, 3T3 fibroblasts. Here is the method: (§1) Hepatocellular carcinoma (HepG2), mouse fibroblast (3T3), human lung (HPL1A), and human keratinocyte (HaCat) cells were cultured in Dulbecco modified eagle media (DMEM) containing 10% fetal bovine serum (FBS) and 1% penicillin, streptomycin, and glutamine (PSG) at 37° C. and 5% CO2. Cells were collected and adjusted to […] to 4×10^5 cells/mL in phenol-red free DMEM and plated (100 μL) 96 well plates. 2-fold serial dilutions of 10× peptoid (11.1 μL) were added to each well in triplicate. Water (vehicle) was used as a negative control. Plates were incubated at 37° C. in 5% CO2 for 72 hours. Thiazolyl blue tetrazolium bromide (MTT) was added to each well (5 mg/mL; 20 μL) and incubated for 3 hours. Media was removed, DMSO (100 μL) was added, and plates were incubated at 37° C. for 10 minutes. Plates were read on a SpectraMax M5 plate reader (Abs. 570 nm). The concentration of compound resulting in a 50% reduction in growth compared to control (toxicity dose 50%; TD50) was determined using GraFit. This procedure was repeated three times on separate days.

For data set [3], the system named is 3T3 fibroblasts. Kind of data set: in vitro. Format: cell-based, mouse. Here is the method:
as §1

Data set [4] can be described thus: in vitro. The class given is cell-based, human. As to conditions: human. Here is the method: as §1
The test system of data set [5] is HPL1A lung cells. Kind of data set: in vitro. Format: cell-based, human. Here is the method: as §1
Data set [6] deals with HaCat keratinocyte cells. Kind of data set: in vitro. The class given is cell-based, human. Here is the method:
as §1

Data set [7] deals with C. neoformans.
Data set [8] relates to HepG2 hepatocellular carcinoma cells. As to conditions: RMG8-8, previously published results (Green et al. 2021); cited from earlier work.

Converted amounts (≈) assume the structure as drawn. Where a SMILES comes first, the peptide text is derived from it. [ ]: non-standard residue; d: D form. N(tridecyl)Gly = CCCCCCCCCCCCCNCC(=O)O; Gly(N-2-aminoethyl) = NCCNCC(=O)O; Gly(N-cHex) = O=C(O)CNC1CCCCC1; Nlys = NCCCCNCC(=O)O

For the molecule `CCCCCCCCCCCCCNCC(=O)N(CC(=O)N(CCCCN)CC(=O)N(CCN)CC(=O)N(CC(N)=O)C1CCCCC1)C1CCCCC1` [RMG8-8, Ntri-Ncha-Nlys-Nae-Ncha] (H-[N(tridecyl)Gly][Gly(N-cHex)][Nlys][Gly(N-2-aminoethyl)][Gly(N-cHex)]-NH2), the “MIC C. albicans” value in data set [1] worked out at 25 µg/mL (≈ 32.8 µM). Moreover, the cytotoxic concentration (CC50) at 72 h turned out to be 59 ± 15 µg/mL (≈ 77.3 µM) in data set [2], 74 ± 8 µg/mL (≈ 97 µM) in data set [4] (HPL1A lung cells) and 54 ± 10 µg/mL (≈ 70.8 µM) in data set [4] (HaCat keratinocyte cells). For the same molecule, in data set [3], the “TD50 3T3” value is 59 µg/mL. Moreover, the “TD50 HPL1A” value in data set [5] stood at 74 µg/mL. Moreover, the “TD50 HaCat” value in data set [6] came to 54 µg/mL. The “MIC C. neoformans after incubation with human serum” value in data set [7] amounted to 3.13 µg/mL. Moreover, the “MIC C. neoformans, stock not incubated with human serum” value in data set [7] was 1.56 µg/mL. Further, in data set [8], the “HepG2 TD50” value is 189 ± 43 µg/mL.

The CC50 is the concentration that lowers cell viability or growth by half. The low end stands for greater toxicity to the cells, the high end for lower toxicity to the cells.
